Residues, ends and D or L forms follow the SMILES beside them.
Legend:
[1] = Permeability coefficient through artificial membrane in presence of unstirred water layer by PAMPA
[2] = Partition coefficient, log P of the compound; details: octanol/water
[3] = Permeability coefficient through artificial membrane in presence of stirred water layer

SMILES	LogP app [1]	logP [2]	Papp [1]	Papp ([3]; PAMPA)	LogP app ([3]; artificial membrane)	LogP app ([3]; PAMPA)
O=C1N[C@@H](Cc2c[nH]c3ccccc23)C(=O)N[C@H]1Cc1c[nH]c2ccccc12	-5.04	2.04	–	–	–	–
O=C1CNC(=O)[C@H](Cc2c[nH]c3ccccc23)N1	-6.02	0.07	–	–	–	–
NC(=O)[C@@H](N)Cc1c[nH]c2ccccc12	-5.56	0.3	–	–	–	–
CC(=O)N[C@@H](Cc1c[nH]c2ccccc12)C(=O)N[C@H](C(N)=O)C(C)C	-6.18	0.73	–	–	–	–
CCc1ccc(C)nc1	-5.55	3.3	2.85 ×10⁻⁶ cm/s	12.9 ×10⁻⁶ cm/s	-4.89	–
CC(=O)N[C@H](Cc1c[nH]c2ccccc12)C(=O)N[C@H](C(N)=O)C(C)C	-6.14	0.65	–	–	–	–
Cc1ccc(O)c(C)c1	-4.61	–	24.3 ×10⁻⁶ cm/s	263 ×10⁻⁶ cm/s	-3.58	–
O=[N+]([O-])c1cc(Cl)ccc1Cl	-5.11	3.03	7.78 ×10⁻⁶ cm/s	80.7 ×10⁻⁶ cm/s	-4.09	–
O=C(O)c1c[nH]c2ccccc12	-6.1	–	–	–	–	–
Nc1ccccc1Cl	-4.48	–	33.1 ×10⁻⁶ cm/s	246 ×10⁻⁶ cm/s	-3.63	–
CC(=O)N[C@@H](Cc1ccc(O)cc1)C(=O)N[C@@H](CC(C)C)C(N)=O (Ac-Tyr-Leu-NH2)	-6.54	0.32	–	–	–	–
CC(=O)N[C@@H](Cc1ccc(O)cc1)C(=O)N[C@@H](Cc1ccccc1)C(N)=O (Ac-Tyr-Phe-NH2)	–	0.54	–	–	–	–
NCC(=O)N[C@@H](Cc1c[nH]c2ccccc12)C(N)=O (H-Gly-Trp-NH2)	-6.38	-0.48	–	–	–	–
NC(=O)[C@H](Cc1c[nH]c2ccccc12)NC(=O)[C@@H](N)Cc1ccccc1 (H-Phe-Trp-NH2)	-5.22	1.38	–	–	–	–
CC(C)[C@H](NC(=O)[C@H](C)NC(=O)[C@@H](N)Cc1c[nH]c2ccccc12)C(N)=O (H-Trp-Ala-Val-NH2)	-6.62	0.4	–	–	–	–
Oc1ccc(Cl)cc1Cl [2,4-DICHLOROPHENOL]	-4.93	–	11.9 ×10⁻⁶ cm/s	127 ×10⁻⁶ cm/s	-3.9	–
Oc1ccccc1Cl [2-CHLOROPHENOL]	-4.3	–	50 ×10⁻⁶ cm/s	15.2 ×10⁻⁶ cm/s	-4.82	–
Nc1ccccc1[N+](=O)[O-] [2-NITROANILINE]	-4.54	–	28.6 ×10⁻⁶ cm/s	229 ×10⁻⁶ cm/s	-3.64	–
Nc1cccc(Cl)c1 [3-CHLOROANILINE]	-4.44	–	36.7 ×10⁻⁶ cm/s	261 ×10⁻⁶ cm/s	-3.58	–
O=[N+]([O-])c1cccc(O)c1 [3-NITRO-PHENOL]	-4.77	–	17.1 ×10⁻⁶ cm/s	69.4 ×10⁻⁶ cm/s	-4.16	–
Nc1cccc([N+](=O)[O-])c1 [3-NITROANILINE]	-4.67	–	21.6 ×10⁻⁶ cm/s	196 ×10⁻⁶ cm/s	-3.7	–
Nc1ccc(Cl)cc1 [4-CHLOROANILINE]	-4.38	1.88	41.8 ×10⁻⁶ cm/s	258 ×10⁻⁶ cm/s	-3.59	–
N#Cc1ccc(O)cc1 [4-CYANOPHENOL]	-4.77	–	17 ×10⁻⁶ cm/s	22.3 ×10⁻⁶ cm/s	-4.65	–
CC(=O)Nc1ccc(O)cc1 [ACETAMINOPHEN]	-6.04	–	–	2.22 ×10⁻⁶ cm/s	-5.65	–
CC(=O)N[C@@H](Cc1c[nH]c2ccccc12)C(N)=O [ACETYLTRYPTOPHANAMIDE]	-5.72	0.42	–	–	–	–
Nc1ccccc1 [ANILINE]	-4.12	–	75.9 ×10⁻⁶ cm/s	306 ×10⁻⁶ cm/s	-3.51	–
Cc1cc(=O)n(-c2ccccc2)n1C [ANTIPYRINE]	-5.54	–	–	–	–	–

SMILES	LogP app [1]	logP [2]	Papp [1]	Papp ([3]; PAMPA)	LogP app ([3]; artificial membrane)	LogP app ([3]; PAMPA)
c1ccc(-c2ccccc2)cc1 [BIPHENYL]	-5.95	4.01	1.12 ×10⁻⁶ cm/s	53.3 ×10⁻⁶ cm/s	–	-4.27
O=C(N[C@H](CO)[C@H](O)c1ccc([N+](=O)[O-])cc1)C(Cl)Cl [CHLORAMPHENICOL]	–	–	–	5.75 ×10⁻⁶ cm/s	–	–
Cc1cc(C)cc(C(=O)N(NC(=O)c2ccc3c(c2C)CCCO3)C(C)(C)C)c1 [CHROMAFENOZIDE]	-4.78	2.7	16.7 ×10⁻⁶ cm/s	–	–	–
Clc1cccc(Cl)c1N=C1NCCN1 [CLONIDINE]	-4.98	1.43	–	11.4 ×10⁻⁶ cm/s	–	-4.94
C[C@]12C[C@H](O)[C@H]3[C@@H](CCC4=CC(=O)CC[C@@]43C)[C@@H]1CC[C@@H]2C(=O)CO [CORTICOSTERONE]	-4.77	–	–	34.2 ×10⁻⁶ cm/s	-4.47	–
C[C@@H]1C[C@H]2[C@@H]3CCC4=CC(=O)C=C[C@]4(C)[C@@]3(F)[C@@H](O)C[C@]2(C)[C@@]1(O)C(=O)CO [DEXAMETHASONE]	-5.37	2.01	–	11.3 ×10⁻⁶ cm/s	-4.95	–
CCOC(=O)c1ccccc1C(=O)OCC [DIETHYL PHTHALATE]	-4.82	–	15.1 ×10⁻⁶ cm/s	–	–	–
COC(=O)c1ccccc1C(=O)OC [DIMETHYL PHTHALATE]	-4.36	1.56	43.3 ×10⁻⁶ cm/s	158 ×10⁻⁶ cm/s	-3.8	–
O=C(O)c1ccccc1Nc1ccccc1 [FENAMIC ACID]	-4.86	–	13.8 ×10⁻⁶ cm/s	24.3 ×10⁻⁶ cm/s	-4.61	–
CCC(C)c1ccccc1OC(=O)NC (configuration not stated) [FENOBUCARB]	-4.91	–	12.4 ×10⁻⁶ cm/s	131 ×10⁻⁶ cm/s	-3.88	–
CC(C)(C)N(NC(=O)c1ccc(Cl)cc1)C(=O)c1ccccc1 [HALOFENOZIDE]	-4.76	–	17.2 ×10⁻⁶ cm/s	–	–	–
Oc1ccc(O)cc1 [HYDROQUINONE]	-5.14	–	7.31 ×10⁻⁶ cm/s	4.6 ×10⁻⁶ cm/s	–	-5.34
O=[N+]([O-])NC1=NCCN1Cc1ccc(Cl)nc1 [IMIDACLOPRID]	-5.34	0.59	4.52 ×10⁻⁶ cm/s	5.21 ×10⁻⁶ cm/s	-5.31	–
O=C(O)Cc1c[nH]c2ccccc12 [INDOLE-3-ACETIC ACID]	-6.4	–	–	–	–	–
O=C(O)CCc1c[nH]c2ccccc12 [INDOLYLPROPIONIC ACID]	-5.68	–	–	–	–	–
CC(CCc1ccccc1)NCC(O)c1ccc(O)c(C(N)=O)c1 (configuration not stated) [LABETALOL]	-5.18	–	–	5.64 ×10⁻⁶ cm/s	-5.25	–
O=[N+]([O-])c1ccccc1O [NITROPHENOLATE]	-4.24	–	57 ×10⁻⁶ cm/s	216 ×10⁻⁶ cm/s	-3.36	–
Cc1ccccc1O [ORTHOCRESOL]	-4.28	–	52.1 ×10⁻⁶ cm/s	295 ×10⁻⁶ cm/s	-3.53	–
Oc1ccccc1 [PHENOL]	-4.33	–	47 ×10⁻⁶ cm/s	–	–	-3.83
CC(=O)Nc1ccc(OCC(O)CNC(C)C)cc1 (configuration not stated) [PRACTOLOL]	-5.98	–	–	0.37 ×10⁻⁶ cm/s	-6.43	–
CNC(=C[N+](=O)[O-])NCCSCc1ccc(CN(C)C)o1 [RANITIDINE]	-6.05	–	–	3 ×10⁻⁶ cm/s	–	-5.52
COP1(=S)OCc2ccccc2O1 (configuration not stated) [SALITHION]	-5.03	–	9.39 ×10⁻⁶ cm/s	43.9 ×10⁻⁶ cm/s	-4.36	–
Cn1c(=O)c2[nH]cnc2n(C)c1=O.O [THEOPHYLLINE]	-5.31	–	–	–	–	–
CCN(CC)C(=O)SCc1ccc(Cl)cc1 [THIOBENCARB]	-4.69	–	20.6 ×10⁻⁶ cm/s	92.9 ×10⁻⁶ cm/s	-4.03	–
NCCc1c[nH]c2ccccc12 [TRYPTAMINE]	-5.27	1.35	–	–	–	–
OCCc1c[nH]c2ccccc12 [TRYPTOPHOL]	-4.72	1.54	–	–	–	–

Source: ChEMBL document CHEMBL1143050, “QSAR study on permeability of hydrophobic compounds with artificial membranes” (Bioorg Med Chem, 2007)
